From patent US20180311220A1, “TREATMENT OF CANCERS WITH ACQUIRED RESISTANCE TO KIT INHIBITORS” (Bayer HealthCare LLC, priority 2007, published 2018)

Columns and labels:
Format in all cases: cell-based, murine
[1] = system: Ba/F3 cells expressing human c-KIT exon 11 deletion + Y823D; assay: Ba/F3 cell proliferation assay (CellTiter-Glo), c-KIT exon 11 deletion + Y823D; conditions: BaF3; Exon 11 + Y823D; n ≥ 3; 72 h incubation; read-out: Average IC50 for c-KIT-expressing Ba/F3 cellular proliferation, Exon 11 + Y823D
Protocol: (§1) The cDNA encoding full length human c-KIT with a deletion in exon 11 that removed amino acid residues 557-558 was ligated into the mammalian expression vector pClneo (Promega). […] All mutations were confirmed by DNA sequencing.
(§2) Selective pressure was applied to the transfected cells by removing IL-3 from the culture medium. After IL-independent populations, further selective pressure was applied by also growing the cells in the presence of 1 mg/mL G418. […] The stable pools were further characterized by sequencing genomic DNA to confirm the presence of the transfected c-KIT cDNA.
(§3) This assay utilizes cellular ATP as a marker for cell proliferation/viability. On day 1, Ba/F3 cells were plated in 96 well dishes (Costar 3603) at 10,000 cells per well in 10% FBS in RPMI medium with 1 mg/ml G418. […] Plates were then incubated in a 5% CO2 incubator at 37° C. for 3 days. […] The cells were then incubated on a shaker for 5 minutes at room temperature, and luminescence was measured on a Victor 5 (Perkin Elmer) spectrophotometer.
(§4) Growth inhibition was measured by comparing luminescence signal from treated vs. untreated cells in assay plates, and the IC50 analysis of cell proliferation inhibition by compounds was analyzed using Analyze 5 in-house software. The IC50 values are mean values calculated from at least three experiments.

[2] = system: Ba/F3 cells expressing human c-KIT exon 11 deletion + T6701; assay: Ba/F3 cell proliferation assay (CellTiter-Glo), c-KIT exon 11 deletion + T6701; conditions: BaF3; Exon 11 +T6701; n ≥ 3; 72 h incubation; read-out: Average IC50 for c-KIT-expressing Ba/F3 cellular proliferation, Exon 11 +T6701
Protocol: as §1, §2, §3, §4

[3] = system: Ba/F3 cells expressing human c-KIT exon 11 deletion + N822K; assay: Ba/F3 cell proliferation assay (CellTiter-Glo), c-KIT exon 11 deletion + N822K; conditions: BaF3; Exon 11 + N822K; n ≥ 3; 72 h incubation; read-out: Average IC50 for c-KIT-expressing Ba/F3 cellular proliferation, Exon 11 + N822K
Protocol: as §1, §2, §3, §4

[4] = system: Ba/F3 cells expressing human c-KIT with exon 11 deletion (residues 557-558); assay: Ba/F3 cell proliferation assay (CellTiter-Glo), c-KIT exon 11 deletion; conditions: BaF3, n ≥ 3, 72 h incubation, read-out: Average IC50 for c-KIT-expressing Ba/F3 cellular proliferation, Exon 11 Deletion
Protocol: as §1, §2, §3, §4

[5] = system: Ba/F3 cells expressing human c-KIT exon 11 deletion + D816G; assay: Ba/F3 cell proliferation assay (CellTiter-Glo), c-KIT exon 11 deletion + D816G; conditions: BaF3; Exon 11 + D816G; n ≥ 3; 72 h incubation; read-out: Average IC50 for c-KIT-expressing Ba/F3 cellular proliferation, Exon 11 + D816G
Protocol: as §1, §2, §3, §4

[6] = system: Ba/F3 cells expressing human c-KIT exon 11 deletion + V654A; assay: Ba/F3 cell proliferation assay (CellTiter-Glo), c-KIT exon 11 deletion + V654A; conditions: BaF3; Exon 11 + V654A; n ≥ 3; 72 h incubation; read-out: Average IC50 for c-KIT-expressing Ba/F3 cellular proliferation, Eson 11 + V654A
Protocol: as §1, §2, §3, §4

IC50 [1]: 129 nM
IC50 [2]: 19 nM
IC50 [3]: 12 nM
IC50 [4]: 7 nM
IC50 [5]: 14 nM
IC50 [6]: 38 nM
SMILES: CNC(=O)c1cc(Oc2ccc(NC(=O)Nc3ccc(Cl)c(C(F)(F)F)c3)c(F)c2)ccn1 [DAST, 4{4-[3-(4-chloro-3-trifluoromethylphenyl)-ureido]-3-fluorophenoxy}-pyridine-2-carboxylic acid methylamide]
